Assay results taken from patent publication EP0475413B1, “Carbocyclic nucleoside analogs useful as immunosuppressants” (HOECHST MARION ROUSSEL, INC., priority 1990, dated 1992).
Where a name gives a salt, the structure may show the parent alone.

Legend:
[1] = system: Rat peritoneal macrophages; assay: Inhibition of priming of rat peritoneal macrophages, Superoxide Anion (O2-) assay; type: cell-based; conditions: Peritoneal macrophage, opsonized zymosan (3 mg/mL) as stimulus, rrIFN-γ (1000Units/mL), compound 0 to 1000µM, superoxide anion readout, read-out: IC₅₀ (inhibits the priming of rat macrophages in vitro)
Procedure: Rat peritoneal macrophages were isolated and grown in cell culture essentially as described by Edwards et al. [Science 239, 769 (1988)]. Macrophages were incubated along with opsonized zymosan (3 mg/mL), which acts as a particulate stimulus, and recombinant rat γ-interferon (rrIFN-γ)(1000Units/mL), which acts as an activating lymphokine, in the presence of various concentrations of (1R,3S)-Cis-1-(9-adenyl)-3-hydroxy-4-cyclopentene (0 to 1000µM). The degree of macrophage priming was measured using the Superoxide Anion (O₂⁻) assay as described by Edwards et al. [Science 239, 769 (1988)].

[2] = system: rat PMNs; assay: Inhibition of rrIFN-γ priming of rat PMN, Superoxide Anion (O2-) assay; type: cell-based; conditions: PMNs from rat air pouch elicited with rHuIL-1 (25ng/pouch); PMA (200ng/mL) as stimulus, rrIFN-γ (1000 Units/mL); compound 0 to 1000µM; superoxide anion readout; read-out: IC₅₀ (inhibits the rrIFN-γ priming of rat PMN in vitro)
Procedure: The rat air pouch model of inflammation was used to obtain rat PMNs using 25ng/pouch of recombinant human interleukin-1 (rHuIL-1) to elicit the cells essentially according to the method of Esser et al. [Internat. J. Tissue Reactions XI, 291 (1989)]. PMNs were incubated along with phorbol myristate acetate (PMA) (200ng/mL), which acts as a soluble stimulus, and rrIFN-γ (1000 Units/mL), which act as a stimulatory lymphokine, in the presence of various concentrations of (1R,3S)-Cis-1-(9-adenyl)-3-hydroxy-4-cyclopentene (0 to 1000µM). The degree of macrophage priming was measured using the Superoxide Anion (O₂⁻) assay as described by Edwards et al. [Science 239, 769 (1988)].

IC50 [1]: 25 µM
IC50 [2]: 0.015 µM
Structure (SMILES): Nc1ncnc2c1ncn2[C@H]1C=C[C@@H](O)C1 [Example 1, (1R,3S)-Cis-1-(9-adenyl)-3-hydroxy-4-cyclopentene hydrochloride]
